“And” between values parts separate entries of the source, which are not always exact repeats. Identical values can stand only once. Toxic doses and inconclusive results are not listed. The calls were made as follows: active = survival T/C of 150% or more; inactive = T/C below 125% in these data.
Tested on: P388 leukemia ip, CD2F1 mice, survival T/C
Assay: NCI In Vivo Anticancer Drug Screen. Data for tumor model P388 Leukemia (intraperitoneal) in CD2F1 (CDF1) mice
Conditions: endpoint: median survival time, higher = longer survival
Method in brief: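 Mice carrying the transplanted tumor received test compound or vehicle. Survival was recorded in each group, and the value is the treated-group measurement divided by that of the vehicle-treated control group.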

[1] = dose: 50.0 mg/kg/injection, schedule: Q01DX009 (ip), vehicle: saline with Tween-80
[2] = dose: 100.0 mg/kg/injection, schedule: Q01DX009 (ip), vehicle: saline with Tween-80
[3] = dose: 200.0 mg/kg/injection, schedule: Q01DX009 (ip), vehicle: saline with Tween-80
[4] = dose: 100.0 mg/kg/injection, schedule: Q01DX005 (ip), vehicle: saline with Tween-80
[5] = dose: 200.0 mg/kg/injection, schedule: Q01DX005 (ip), vehicle: saline with Tween-80
[6] = dose: 100.0 mg/kg/injection, schedule: Q04DX002 (ip), vehicle: saline with Tween-80
[7] = dose: 200.0 mg/kg/injection, schedule: Q04DX002 (ip), vehicle: saline with Tween-80
[8] = dose: 50.0 mg/kg/injection, schedule: Q01DX005 (ip), vehicle: Klucel (hydroxypropylcellulose) (HPC)
[9] = dose: 100.0 mg/kg/injection, schedule: Q01DX005 (ip), vehicle: Klucel (hydroxypropylcellulose) (HPC)
[10] = dose: 12.5 mg/kg/injection, schedule: Q01DX009 (ip), vehicle: saline with Tween-80
[11] = dose: 12.5 mg/kg/injection, schedule: Q01DX009 (ip), vehicle: saline
[12] = dose: 50.0 mg/kg/injection, schedule: Q01DX005 (ip), vehicle: saline with Tween-80
[13] = dose: 50.0 mg/kg/injection, schedule: Q01DX009 (ip), vehicle: Klucel (hydroxypropylcellulose) (HPC)
[14] = dose: 100.0 mg/kg/injection, schedule: Q01DX009 (ip), vehicle: Klucel (hydroxypropylcellulose) (HPC)
[15] = dose: 50.0 mg/kg/injection, schedule: Q01DX009 (ip), vehicle: saline
[16] = dose: 12.5 mg/kg/injection, schedule: Q01DX001 (ip), vehicle: Klucel (hydroxypropylcellulose) (HPC)
[17] = dose: 25.0 mg/kg/injection, schedule: Q01DX001 (ip), vehicle: Klucel (hydroxypropylcellulose) (HPC)

Measured: T/C

CCC[CH2][Hg][Cl]
inactive: dose: 3.3 mg/kg/injection, schedule: Q01DX009 (ip), vehicle: other 95 % of control | dose: 5.0 mg/kg/injection, schedule: Q01DX009 (ip), vehicle: other 100 % of control | dose: 7.5 mg/kg/injection, schedule: Q01DX009 (ip), vehicle: other 118 % of control

CCC/C(=N\O)C(O)(CCC)CCC
inactive: [1] 89 % of control | [2] 89 % of control | [3] 89 % of control

Cn1c2ccccc2c2nnc(-n3nc(-c4ccc(Br)cc4)cc3N)nc21
inactive: dose: 12.5 mg/kg/injection, schedule: Q01DX005 (ip), vehicle: saline with Tween-80 98 % of control | dose: 25.0 mg/kg/injection, schedule: Q01DX005 (ip), vehicle: saline with Tween-80 87 % of control | [4] 93 % of control | [5] 95 % of control

CC(CN(C)C)OC(=O)c1ccc(Cl)cc1Cl (stereo not drawn)
inactive: dose: 50.0 mg/kg/injection, schedule: Q01DX005 (ip), vehicle: saline 100 % of control | dose: 100.0 mg/kg/injection, schedule: Q01DX005 (ip), vehicle: saline 98 % of control | dose: 200.0 mg/kg/injection, schedule: Q01DX005 (ip), vehicle: saline 100 % of control

COc1cc2c3c(cccc3c1)C(=O)N(CCN(C)C)C2=O
inactive: dose: 9.5 mg/kg/injection, schedule: Q01DX009 (ip), vehicle: saline with Tween-80 110 % of control

O/N=C/C(Cl)=N\O
inactive: [6] 91 % of control | [7] 90 % of control

O=C1CCC/C(c2ccccc2)=N\N=C/1c1ccccc1
inactive: [8] 106 % of control | [9] 106 % of control | dose: 200.0 mg/kg/injection, schedule: Q01DX005 (ip), vehicle: Klucel (hydroxypropylcellulose) (HPC) 103 % of control

CC(=O)N1CC(=O)NC1=S
inactive: [1] 106 % of control | [2] 97 % of control | [3] 103 % of control and 95 % of control | dose: 400.0 mg/kg/injection, schedule: Q01DX009 (ip), vehicle: saline with Tween-80 104 % of control

CCn1c(=O)c2[nH]c(Cl)nc2n(CC)c1=O
inactive: dose: 25.0 mg/kg/injection, schedule: Q04DX003 (ip), vehicle: water 91 % of control | dose: 50.0 mg/kg/injection, schedule: Q04DX003 (ip), vehicle: water 103 % of control | dose: 100.0 mg/kg/injection, schedule: Q04DX003 (ip), vehicle: water 112 % of control

O=C1C(=O)C2CC3(CC1N2Cc1ccccc1)OCCO3
inactive: dose: 8.75 mg/kg/injection, schedule: Q01DX005 (ip), vehicle: Klucel (hydroxypropylcellulose) (HPC) 109 % of control | dose: 17.5 mg/kg/injection, schedule: Q01DX005 (ip), vehicle: Klucel (hydroxypropylcellulose) (HPC) 104 % of control | dose: 35.0 mg/kg/injection, schedule: Q01DX005 (ip), vehicle: Klucel (hydroxypropylcellulose) (HPC) 110 % of control

O=[N+]([O-])c1ccc2c(c1)[S@@](=O)c1nc([N+](=O)[O-])cnc1N2
inactive: [8] 103 % of control | [9] 101 % of control

OC(/C=C\CC(O)(C(F)(F)F)C(F)(F)F)(C(F)(F)F)C(F)(F)F
inactive: dose: 3.12 mg/kg/injection, schedule: Q01DX009 (ip), vehicle: saline 100 % of control | dose: 6.25 mg/kg/injection, schedule: Q01DX009 (ip), vehicle: saline 106 % of control | [10] 91 % of control | [11] 93 % of control

O=C(O)C(Nc1ccc2ccccc2c1)C(=O)O
inactive: [12] 94 % of control | [4] 103 % of control | [5] 94 % of control

CCCCCCCC/C=C/CCCCCCCC(=O)N(C)CCOC(=O)C(C)(C)C
inactive: [13] 122 % of control and 95 % of control | [14] 106 % of control and 120 % of control | dose: 200.0 mg/kg/injection, schedule: Q01DX009 (ip), vehicle: Klucel (hydroxypropylcellulose) (HPC) 103 % of control and 114 % of control

Cc1ccc2c(c1)SP(c1ccccc1)S2 (stereo not drawn)
inactive: [6] 103 % of control | [7] 104 % of control | dose: 400.0 mg/kg/injection, schedule: Q04DX002 (ip), vehicle: saline with Tween-80 112 % of control

O=C(Nc1cccc(Cl)c1)N1CC1
inactive: [1] 105 % of control | [2] 113 % of control

C/C(CC(N)=O)=C1\C(=O)NN(c2ccccc2)C1=O
inactive: dose: 60.0 mg/kg/injection, schedule: Q01DX005 (ip), vehicle: saline with Tween-80 108 % of control | dose: 120.0 mg/kg/injection, schedule: Q01DX005 (ip), vehicle: saline with Tween-80 110 % of control | dose: 240.0 mg/kg/injection, schedule: Q01DX005 (ip), vehicle: saline with Tween-80 114 % of control

O=S(=O)(O)CCCCS(=O)(=O)O
inactive: [15] 99 % of control | dose: 100.0 mg/kg/injection, schedule: Q01DX009 (ip), vehicle: saline 108 % of control | dose: 200.0 mg/kg/injection, schedule: Q01DX009 (ip), vehicle: saline 110 % of control

C=C1C(=O)OC2C1C(OC(=O)C(C)CC)CC1(O)COC3(O)C1C2C1(C)OC13 (stereo not drawn)
inactive: dose: 6.25 mg/kg/injection, schedule: Q01DX001 (ip), vehicle: Klucel (hydroxypropylcellulose) (HPC) 106 % of control | [16] 108 % of control | [17] 117 % of control and 90 % of control

S=c1[nH]ccn1-c1c(Cl)cccc1Cl
inactive: [13] 99 % of control | [14] 100 % of control

C=CC1CCC[S+]1CC(=O)C(Cl)(Cl)Cl (stereo not drawn)
inactive: dose: 100.0 mg/kg/injection, schedule: Q01DX001 (ip), vehicle: saline with Tween-80 102 % of control | dose: 200.0 mg/kg/injection, schedule: Q01DX001 (ip), vehicle: saline with Tween-80 109 % of control

CC(=O)Nc1c(Cl)c(Cl)c2c(c1Cl)Cc1cc(Cl)ccc1-2
inactive: [11] 103 % of control | dose: 25.0 mg/kg/injection, schedule: Q01DX009 (ip), vehicle: saline 104 % of control | dose: 25.0 mg/kg/injection, schedule: Q01DX009 (ip), vehicle: suspension in saline 91 % of control | [15] 107 % of control | dose: 50.0 mg/kg/injection, schedule: Q01DX009 (ip), vehicle: suspension in saline 87 % of control | dose: 100.0 mg/kg/injection, schedule: Q01DX009 (ip), vehicle: suspension in saline 91 % of control

COC(=O)Nc1ccc(C2OCCN2C(=O)Nc2ccc(Cl)cc2)cc1 (stereo not drawn)
inactive: [12] 87 % of control | [4] 88 % of control

Cc1cc(C(F)(F)F)nc2nc3ccccc3n12
inactive: dose: 60.0 mg/kg/injection, schedule: Q01DX005 (ip), vehicle: Klucel (hydroxypropylcellulose) (HPC) 101 % of control | dose: 120.0 mg/kg/injection, schedule: Q01DX005 (ip), vehicle: Klucel (hydroxypropylcellulose) (HPC) 102 % of control | dose: 240.0 mg/kg/injection, schedule: Q01DX005 (ip), vehicle: Klucel (hydroxypropylcellulose) (HPC) 89 % of control

O=C(O)C(CS)NCCNC(CS)C(=O)O (stereo not drawn)
inactive: [16] 97 % of control | [17] 97 % of control

N#CC1(c2ccccc2)OC1(C#N)c1ccccc1 (stereo not drawn)
inactive: [10] 96 % of control | dose: 25.0 mg/kg/injection, schedule: Q01DX009 (ip), vehicle: saline with Tween-80 101 % of control | dose: 37.5 mg/kg/injection, schedule: Q01DX009 (ip), vehicle: acetone 96 % of control | [1] 93 % of control | dose: 75.0 mg/kg/injection, schedule: Q01DX009 (ip), vehicle: acetone 95 % of control | dose: 150.0 mg/kg/injection, schedule: Q01DX009 (ip), vehicle: acetone 113 % of control

— PubChem BioAssay AID330 (DTP/NCI, 2004)
